Converted amounts (≈) assume the structure as drawn.
Test system: Saccharomyces cerevisiae
Assay: Antifungal activity against Saccharomyces cerevisiae ATCC9763 assessed as growth inhibition incubated at 35 degC for 24 hrs by micro broth dilution method
Assay type: functional
Conditions: ATCC9763, 24 h

| SMILES | MIC80 |
| --- | --- |
| OC(Cn1cncn1)(Cn1cncn1)c1ccc(F)cc1F [FLUCONAZOLE] | 16 µg/mL (≈ 52.2 µM) |
| CCn1cc(C(=O)O)c(=O)c2cc(F)c(N3CCN(CC(O)CSc4ncn(Cc5ccc(Cl)c(Cl)c5)n4)CC3)cc21 (stereo not drawn) | 32 µg/mL (≈ 50.4 µM) |
| Cn1nnnc1SCC(O)CN1CCN(c2cc3c(cc2F)c(=O)c(C(=O)O)cn3C2CC2)CC1 (stereo not drawn) | 8 µg/mL (≈ 15.9 µM) |

Test system: Cyberlindnera jadinii
Assay: Antifungal activity against Candida utilis ATCC9950 assessed as growth inhibition incubated at 35 degC for 24 hrs by micro broth dilution method
Assay type: functional
Conditions: Williopsis jadinii, ATCC9950, 24 h

| SMILES | MIC80 |
| --- | --- |
| OC(Cn1cncn1)(Cn1cncn1)c1ccc(F)cc1F [FLUCONAZOLE] | 8 µg/mL (≈ 26.1 µM) |
| CCn1cc(C(=O)O)c(=O)c2cc(F)c(N3CCN(CC(O)CSc4ncn(Cc5ccc(Cl)c(Cl)c5)n4)CC3)cc21 (stereo not drawn) | 128 µg/mL (≈ 201 µM) |
| Cn1nnnc1SCC(O)CN1CCN(c2cc3c(cc2F)c(=O)c(C(=O)O)cn3C2CC2)CC1 (stereo not drawn) | 256 µg/mL (≈ 508 µM) |

Test system: Candida albicans
Assay: Antifungal activity against Candida albicans ATCC10231 assessed as growth inhibition incubated at 35 degC for 24 hrs by micro broth dilution method
Assay type: functional
Conditions: ATCC10231, 24 h

| SMILES | MIC80 |
| --- | --- |
| OC(Cn1cncn1)(Cn1cncn1)c1ccc(F)cc1F [FLUCONAZOLE] | 1 µg/mL (≈ 3.27 µM) |
| CCn1cc(C(=O)O)c(=O)c2cc(F)c(N3CCN(CC(O)CSc4ncn(Cc5ccc(Cl)c(Cl)c5)n4)CC3)cc21 (stereo not drawn) | 64 µg/mL (≈ 101 µM) |
| Cn1nnnc1SCC(O)CN1CCN(c2cc3c(cc2F)c(=O)c(C(=O)O)cn3C2CC2)CC1 (stereo not drawn) | 8 µg/mL (≈ 15.9 µM) |

Test system: not listed separately
Assay: Antibacterial activity against Eberthella typhosa ATCC14028 assessed as growth inhibition incubated at 37 degC for 24 hrs by micro broth dilution method
Assay type: functional
Conditions: ATCC14028, 24 h

| SMILES | MIC |
| --- | --- |
| CCn1cc(C(=O)O)c(=O)c2cc(F)c(N3CCN(CC(O)CSc4ncn(Cc5ccc(Cl)c(Cl)c5)n4)CC3)cc21 (stereo not drawn) | 64 µg/mL (≈ 101 µM) |

Test system: not listed separately
Assay: Antifungal activity against Candida mycoderma ATCC9888 assessed as growth inhibition incubated at 35 degC for 24 hrs by micro broth dilution method
Assay type: functional
Conditions: Kregervanrija fluxuum

| SMILES | MIC80 |
| --- | --- |
| OC(Cn1cncn1)(Cn1cncn1)c1ccc(F)cc1F [FLUCONAZOLE] | 4 µg/mL (≈ 13.1 µM) |
| CCn1cc(C(=O)O)c(=O)c2cc(F)c(N3CCN(CC(O)CSc4ncn(Cc5ccc(Cl)c(Cl)c5)n4)CC3)cc21 (stereo not drawn) | 128 µg/mL (≈ 201 µM) |
| Cn1nnnc1SCC(O)CN1CCN(c2cc3c(cc2F)c(=O)c(C(=O)O)cn3C2CC2)CC1 (stereo not drawn) | 16 µg/mL (≈ 31.8 µM) |

Test system: Aspergillus flavus
Assay: Antifungal activity against Aspergillus flavus ATCC204304 assessed as growth inhibition incubated at 35 degC for 24 hrs by micro broth dilution method
Assay type: functional
Conditions: ATCC204304, 24 h

| SMILES | MIC80 |
| --- | --- |
| OC(Cn1cncn1)(Cn1cncn1)c1ccc(F)cc1F [FLUCONAZOLE] | 256 µg/mL (≈ 836 µM) |
| CCn1cc(C(=O)O)c(=O)c2cc(F)c(N3CCN(CC(O)CSc4ncn(Cc5ccc(Cl)c(Cl)c5)n4)CC3)cc21 (stereo not drawn) | 16 µg/mL (≈ 25.2 µM) |
| Cn1nnnc1SCC(O)CN1CCN(c2cc3c(cc2F)c(=O)c(C(=O)O)cn3C2CC2)CC1 (stereo not drawn) | 8 µg/mL (≈ 15.9 µM) |

Test system: Escherichia coli
Assay: Antibacterial activity against Escherichia coli JM109 assessed as growth inhibition incubated at 37 degC for 24 hrs by micro broth dilution method
Assay type: functional
Conditions: JM109, 24 h

| SMILES | MIC |
| --- | --- |
| CCn1cc(C(=O)O)c(=O)c2cc(F)c(N3CCN(CC(O)CSc4ncn(Cc5ccc(Cl)c(Cl)c5)n4)CC3)cc21 (stereo not drawn) | 16 µg/mL (≈ 25.2 µM) |
| Cn1nnnc1SCC(O)CN1CCN(c2cc3c(cc2F)c(=O)c(C(=O)O)cn3C2CC2)CC1 (stereo not drawn) | 8 µg/mL (≈ 15.9 µM) |

Test system: Staphylococcus aureus
Assay: Antibacterial activity against methicillin resistant Staphylococcus aureus N315 assessed as growth inhibition incubated at 37 degC for 24 hrs by micro broth dilution method
Assay type: functional
Conditions: N315, 24 h

| SMILES | MIC |
| --- | --- |
| CCn1cc(C(=O)O)c(=O)c2cc(F)c(N3CCN(CC(O)CSc4ncn(Cc5ccc(Cl)c(Cl)c5)n4)CC3)cc21 (stereo not drawn) | 8 µg/mL (≈ 12.6 µM) |

Test system: Staphylococcus aureus
Assay: Antibacterial activity against Staphylococcus aureus ATCC25923 assessed as growth inhibition incubated at 37 degC for 24 hrs by micro broth dilution method
Assay type: functional
Conditions: ATCC25923, 24 h

| SMILES | MIC |
| --- | --- |
| CCn1cc(C(=O)O)c(=O)c2cc(F)c(N3CCN(CC(O)CSc4ncn(Cc5ccc(Cl)c(Cl)c5)n4)CC3)cc21 (stereo not drawn) | 4 µg/mL (≈ 6.29 µM) |

Test system: Micrococcus luteus
Assay: Antibacterial activity against Micrococcus luteus ATCC4698 assessed as growth inhibition incubated at 37 degC for 24 hrs by micro broth dilution method
Assay type: functional
Conditions: ATCC4698, 24 h

| SMILES | MIC |
| --- | --- |
| CCn1cc(C(=O)O)c(=O)c2cc(F)c(N3CCN(CC(O)CSc4ncn(Cc5ccc(Cl)c(Cl)c5)n4)CC3)cc21 (stereo not drawn) | 32 µg/mL (≈ 50.4 µM) |
| Cn1nnnc1SCC(O)CN1CCN(c2cc3c(cc2F)c(=O)c(C(=O)O)cn3C2CC2)CC1 (stereo not drawn) | 8 µg/mL (≈ 15.9 µM) |

Test system: Bacillus subtilis
Assay: Antibacterial activity against Bacillus subtilis ATCC6633 assessed as growth inhibition incubated at 37 degC for 24 hrs by micro broth dilution method
Assay type: functional
Conditions: ATCC6633, 24 h

| SMILES | MIC |
| --- | --- |
| CCn1cc(C(=O)O)c(=O)c2cc(F)c(N3CCN(CC(O)CSc4ncn(Cc5ccc(Cl)c(Cl)c5)n4)CC3)cc21 (stereo not drawn) | 128 µg/mL (≈ 201 µM) |
| Cn1nnnc1SCC(O)CN1CCN(c2cc3c(cc2F)c(=O)c(C(=O)O)cn3C2CC2)CC1 (stereo not drawn) | 8 µg/mL (≈ 15.9 µM) |

Test system: Pseudomonas aeruginosa
Assay: Antibacterial activity against Pseudomonas aeruginosa ATCC27853 assessed as growth inhibition incubated at 37 degC for 24 hrs by micro broth dilution method
Assay type: functional
Conditions: ATCC27853, 24 h

| SMILES | MIC |
| --- | --- |
| CCn1cc(C(=O)O)c(=O)c2cc(F)c(N3CCN(CC(O)CSc4ncn(Cc5ccc(Cl)c(Cl)c5)n4)CC3)cc21 (stereo not drawn) | 64 µg/mL (≈ 101 µM) |
| Cn1nnnc1SCC(O)CN1CCN(c2cc3c(cc2F)c(=O)c(C(=O)O)cn3C2CC2)CC1 (stereo not drawn) | 16 µg/mL (≈ 31.8 µM) |

Test system: not listed separately
Assay: Antibacterial activity against Bacillus proteus ATCC13315 assessed as growth inhibition incubated at 37 degC for 24 hrs by micro broth dilution method
Assay type: functional
Conditions: ATCC13315, 24 h

| SMILES | MIC |
| --- | --- |
| CCn1cc(C(=O)O)c(=O)c2cc(F)c(N3CCN(CC(O)CSc4ncn(Cc5ccc(Cl)c(Cl)c5)n4)CC3)cc21 (stereo not drawn) | 8 µg/mL (≈ 12.6 µM) |
| Cn1nnnc1SCC(O)CN1CCN(c2cc3c(cc2F)c(=O)c(C(=O)O)cn3C2CC2)CC1 (stereo not drawn) | 4 µg/mL (≈ 7.94 µM) |

— ChEMBL document CHEMBL3739277, “Design, synthesis, and antibacterial evaluation of novel azolylthioether quinolones as MRSA DNA intercalators” (2015)
